This is an account of results in publication PMC10702189, “Tetrazine Glycoconjugate for Pretargeted Positron Emission Tomography Imaging of trans-Cyclooctene-Functionalized Molecular Spherical Nucleic Acids” (ACS Omega, 2023).

This series can be described thus: Stability in end product formulation by analytical radio-HPLC. It is filed as physicochemical. The settings on record: for 6 h from EOS, end product formulation (PBS, ethanol ≤10%) at r.t. The procedure: Chemical and radiochemical purity and stability of precursors and radiotracers were measured with analytical HPLC (Hitachi LaChrom Elite, Schaumburg, USA). Jupiter Proteo reversed-phase C18 column (4 μm, 250 mm × 4.6 mm) was used at a flow rate of 1 mL/min. HPLC eluents were A, 0.1% trifluoroacetic acid (TFA, v/v) in water; B, 0.1% TFA in acetonitrile. The gradient changed from 15% to 35% in 0–15 min. For radiolabeled MSNA quality control, SEC at a flow rate of 1 mL/min was used (Waters Protein-Pak 33SW (7.5 × 300 mm), eluent 0.1 M KH2PO4, pH 7.0).
The cyclotron produced [^18F]fluoride, dissolved in ^18O-enriched water (Rotem Industries Limited, Arava, Israel), was trapped in a Sep-Pak QMA Plus Light cartridge (Waters, preconditioned with 10 mL of 0.5 M K2CO3, 15 mL of water). [^18F]F^– was eluted from the cartridge with 2 mL of QMA-eluent solution (stock solution contains 237.5 mg of Kryptofix 2.2.2, 42.5 mg of potassium carbonate, 2 mL of Milli-Q water in 50 mL of acetonitrile). The reaction mixture was evaporated to dryness with Ar gas flow (70 mL/min for 10 min, and then 80 mL/min for 5–10 min more) under heating at 120 °C. […] The stability of [^18F]FDG-Tz was analyzed by analytical radio-HPLC up to 6 h after EOS in the end product formulation at r.t.

Each structure is given as a SMILES string.

For the compound `O=C(CCON=C[C@H]([18F])[C@@H](O)[C@H](O)[C@H](O)CO)NCc1ccc(-c2nncnn2)cc1` [[^18F]FDG-Tz], the “Radiochemical purity retained (stability)” value is over 98%.
